ChEMBL document CHEMBL1155600, “Constituents of Boronia pinnata” (J Nat Prod, 2000)

What was measured:
[1] = Cytotoxicity against human Raji cells assessed as cell viability at 32 nmol by trypan blue assay
[2] = Cytotoxicity against human Raji cells assessed as cell viability at 16 nmol by trypan blue assay
[3] = Cytotoxicity against human Raji cells assessed as cell viability at 3.2 nmol by trypan blue assay
[4] = Cytotoxicity against human Raji cells assessed as cell viability at 0.32 nmol by trypan blue assay

| SMILES | viability at 32 nmol ([1]; raji) [%] | viability at 16 nmol ([2]; raji) [%] | viability at 3.2 nmol ([3]; raji) [%] | viability at 0.32 nmol ([4]; raji) [%] | viability at 32 nmol ([1]; Raji cells) [%] | viability at 16 nmol ([2]; Raji cells) [%] | viability at 3.2 nmol ([3]; Raji cells) [%] | viability at 0.32 nmol ([4]; Raji cells) [%] |
| --- | --- | --- | --- | --- | --- | --- | --- | --- |
| COc1c2ccccc2nc2occc12 [DICTAMNINE] | 60 | > 80 | > 80 | > 80 | – | – | – | – |
| COc1cc(/C=C/C(=O)O)ccc1OCC=C(C)C [BOROPINIC ACID] | – | – | – | – | 70 | > 80 | > 80 | > 80 |
| COc1cc(=O)n(C)c2c(OC)cccc12 | – | – | – | – | 60 | > 80 | > 80 | > 80 |
| COc1ccc2c(OC)c(CC=C(C)C)c(=O)[nH]c2c1OC [PRESKIMMIANINE] | – | – | – | – | 60 | > 80 | > 80 | > 80 |
| COc1ccc2c(OC)c3ccoc3nc2c1 [EVOLITRINE] | – | – | – | – | 60 | > 80 | > 80 | > 80 |
| COc1cc2ccc(=O)oc2c2c1OC(C)(C)C=C2 | – | – | – | – | 60 | > 80 | > 80 | > 80 |
| CC(C)=CCc1cc(/C=C/C=O)ccc1O | – | – | – | – | 60 | > 80 | > 80 | > 80 |
| O=C(O)/C=C/c1ccc(O)cc1 [COUMARIC ACID] | – | – | – | – | 60 | > 80 | > 80 | > 80 |
| OC/C=C/c1ccc2c(c1)OCO2 | – | – | – | – | 70 | > 80 | > 80 | > 80 |
| COc1cc(C=O)cc(OC)c1O [SYRINGALDEHYDE] | – | – | – | – | 60 | > 80 | > 80 | > 80 |
